Experimental findings from patent US10221174B2, “N-(phenylsulfonyl)benzamides and related compounds as BCL-2 inhibitors” (THE REGENTS OF THE UNIVERSITY OF MICHIGAN, priority 2016, dated 2019) are described below.

Assay [1] concerns RS4;11 cells. In words: RS4;11 cell viability, CCK-8 assay. Format: cell-based. Conditions: Homo sapiens, RS4-11, 96 h, CCK-8, 4 days, read-out: RS4, 11 IC50 (Bcl-2 dependent). As to the method: RS4;11 cells were obtained from American Type Culture Collection (ATCC). They were used within three months of thawing fresh vials. Cells were maintained in the recommended culture medium with 10% FBS at 37° C. and an atmosphere of 5% CO2.
The effect of representative Compounds of the Disclosure on cell viability was determined using Cell Counting Kit-8 (CCK-8) assay (Dojindo, Rockville, Md.) according to the manufacturer's instructions. 200 μL of a RS4;11 cell suspension (10000 cells/well) in culture medium were seeded into 96-well plates and cultured overnight. Each tested compound was serially diluted in culture medium, and 20 μL of the compound dilution was added to the corresponding well of the cell plate. After the addition of the tested compound, the cells were incubated at 37° C. in an atmosphere of 5% CO2 for 4 days. At the end of 4 days, 10 μL of CCK-8 solution was added to each well of the plate and incubated for 1-4 hours. The plates were read at 450 nm on the microplate spectrophotometer (Epoch2, BioTek). The readings were normalized to the vehicle cells, and the IC50 was calculated by nonlinear regression analysis using GraphPad Prism 5 software.
For orientation: Formazan colour is commonly taken as a measure of viable cells.

Assay [2] has as its target Bcl-xL (Homo sapiens (Human), UniProt Q07817). In words: Fluorescence polarization competitive binding assay, Bcl-xL. Conditions: FP competition, 10 nM Bcl-xL, 2 nM Flu-BAK probe; read-out: Inhibitory activity IC50 Bcl-xL.
Protocol: (§1) Fluorescence polarization values were measured using the Infinite M-1000 plate reader (Tecan U.S., Research Triangle Park, N.C.) in Microfluor 1 96-well, black, round-bottom plates (Thermo Scientific). […] Plates were mixed and incubated at room temperature for 1 hour with gentle shaking to assure equilibrium. […] Equilibrium dissociation constants (Kd) were then calculated by fitting the sigmoidal dose-dependent FP increases as a function of protein concentrations using Graphpad Prism 5.0 software (Graphpad Software, San Diego, Calif.).
(§2) Mixtures of 5 μl of the tested inhibitors in DMSO and 120 μl of pre-incubated protein/probe complexes in the assay buffer were added into assay plates and incubated at room temperature for 2 hours with gentle shaking. […] FP values were measured as described above. IC50 values were determined by nonlinear regression fitting of the competition curves.
For assay [3], the target named is Bcl-2 (Homo sapiens (Human), UniProt P10415).
Sequence of Bcl-2 (P10415 whole entry): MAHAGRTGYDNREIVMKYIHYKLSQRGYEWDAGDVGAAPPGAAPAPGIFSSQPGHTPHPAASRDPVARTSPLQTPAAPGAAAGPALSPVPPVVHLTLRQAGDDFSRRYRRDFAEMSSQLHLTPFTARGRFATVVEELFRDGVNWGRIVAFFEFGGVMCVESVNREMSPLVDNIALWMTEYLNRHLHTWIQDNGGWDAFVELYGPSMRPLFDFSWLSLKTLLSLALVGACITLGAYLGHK
Protocol: as §1, §2
The subject of assay [4] is MV4;11 cell line. Briefly: MV4;11 inhibition. Format: cell-based.

Read-outs that look alike come from different tables or passages of the source.

Sequence of Bcl-xL (Q07817 whole entry): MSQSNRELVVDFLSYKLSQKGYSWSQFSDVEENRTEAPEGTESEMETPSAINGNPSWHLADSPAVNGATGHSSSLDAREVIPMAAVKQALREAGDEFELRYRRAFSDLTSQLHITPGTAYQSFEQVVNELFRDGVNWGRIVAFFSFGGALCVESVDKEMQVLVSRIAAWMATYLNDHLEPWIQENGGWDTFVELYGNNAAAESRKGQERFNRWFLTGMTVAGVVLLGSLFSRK

With `O=C(NS(=O)(=O)c1cc([N+](=O)[O-])c2nn(CC3CCOCC3)cc2c1)c1ccc(N2CCN(CC3=C(c4ccc(Cl)cc4)CC4(CCC4)CC3)CC2)cc1Oc1cnc2[nH]ccc2c1` [compound 61, 2-((1H-pyrrolo[2,3-b]pyridin-5-yl)oxy)-4-(4-((6-(4-chlorophenyl)spiro[3.5]non-6-en-7-yl)methyl)piperazin-1-yl)-N-((7-nitro-2-((tetrahydro-2H-pyran-4-yl)methyl)-2H-indazol-5yl)sulfonyl)benzamide], the figures for the IC50 in assay [1] and in assay [2] were 43 nM and 13.1 nM, respectively.
As to `O=C(NS(=O)(=O)c1cccc([N+](=O)[O-])c1)c1ccc(N2CCN(CC3=C(c4ccc(Cl)cc4)CC4(CCC4)CC3)CC2)cc1Oc1cnc2[nH]ccc2c1` [Cpd. No. 4, 2-((1H-pyrrolo[2,3-b]pyridin-5-yl)oxy)-4-(4-((6-(4-chlorophenyl)spiro[3.5]non-6-en-7-yl)methyl)piperazin-1-yl)-N-((3-nitrophenyl)sulfonyl)benzamide], the IC50 (in general, the concentration that gives 50% inhibition) came out at 3.1 nM in assay [3], 427 nM in assay [1] and 8.6 nM in assay [2].
Take `O=C(NS(=O)(=O)c1ccc(NC[C@H]2COCCO2)c([N+](=O)[O-])c1)c1ccc(N2CCN(CC3=C(c4ccc(Cl)cc4)CC4(CCC4)CC3)CC2)nc1Oc1cnc2[nH]ccc2c1` [compound 28, (S)-N-((4-(((1,4-dioxan-2-yl)methyl)amino)-3-nitrophenyl)sulfonyl)-2-((1H-pyrrolo[2,3-b]pyridin-5-yl)oxy)-6-(4-((6-(4-chlorophenyl)spiro[3.5]non-6-en-7-yl)methyl)piperazin-1-yl)nicotinamide]: the IC50 in assay [4] (Homo sapiens, MV4-11) worked out at 1300 nM; in assay [1] it was 968 nM.
The like results for `O=C(NS(=O)(=O)c1ccc(NC[C@H]2COCCO2)c([N+](=O)[O-])c1)c1ncc(N2CCN(CC3=C(c4ccc(Cl)cc4)CC4(CCC4)CC3)CC2)cc1Oc1cnc2[nH]ccc2c1` [compound 27, (S)-N-((4-(((1,4-dioxan-2-yl)methyl)amino)-3-nitrophenyl)sulfonyl)-3-((1H-pyrrolo[2,3-b]pyridin-5-yl)oxy)-5-(4-((6-(4-chlorophenyl)spiro[3.5]non-6-en-7-yl)methyl)piperazin-1-yl)picolinamide] were, in that order, 16.9 nM and 5.2 nM.
The like results for `O=C(NS(=O)(=O)c1ccc(NCC2CCOCC2)c([N+](=O)[O-])c1)c1c(F)cc(N2CCN(CC3=C(c4ccc(Cl)cc4)CC4(CCC4)CC3)CC2)cc1Oc1cnc2[nH]ccc2c1` [compound 41, 2-((1H-pyrrolo[2,3-b]pyridin-5-yl)oxy)-4-(4-((6-(4-chlorophenyl)spiro[3.5]non-6-en-7-yl)methyl)piperazin-1-yl)-6-fluoro-N-((3-nitro-4-(((tetrahydro-2H-pyran-4-yl)methyl)amino)phenyl)sulfonyl)benzamide] were, in that order, 18.1 nM and 52 nM.
The like results for `O=C(NS(=O)(=O)c1cc([N+](=O)[O-])n(CC2CCOCC2)c1)c1ccc(N2CCN(CC3=C(c4ccc(Cl)cc4)CC4(CCC4)CC3)CC2)cc1Oc1cnc2[nH]ccc2c1` [Cpd. No. 25, 2-((1H-pyrrolo[2,3-b]pyridin-5-yl)oxy)-4-(4-((6-(4-chlorophenyl)spiro[3.5]non-6-en-7-yl)methyl)piperazin-1-yl)-N-((5-nitro-1-((tetrahydro-2H-pyran-4-yl)methyl)-1H-pyrrol-3-yl)sulfonyl)benzamide] were, in that order, 5150 nM and 1090 nM.
With `O=C(NS(=O)(=O)C1=CC2C(=O)N(C3CCOCC3)CC2C([N+](=O)[O-])=C1)c1ccc(N2CCN(CC3=C(c4ccc(Cl)cc4)CC4(CCC4)CC3)CC2)cc1Oc1cnc2[nH]ccc2c1` (stereo not drawn) [compound 23, 2-((1H-pyrrolo[2,3-b]pyridin-5-yl)oxy)-4-(4-((6-(4-chlorophenyl)spiro[3.5]non-6-en-7-yl)methyl)piperazin-1-yl)-N-((7-nitro-3-oxo-2-(tetrahydro-2H-pyran-4-yl)-2,3,3a,7a-tetrahydro-1H-isoindol-5-yl)sulfonyl)benzamide], the IC50 came out at 54.6 nM in assay [4] (Homo sapiens, MV4-11) and 19 nM in assay [1].
The like results for `O=C(NS(=O)(=O)c1ccc(NCC2CCOCC2)c([N+](=O)[O-])c1)c1ncc(N2CCN(CC3=C(c4ccc(Cl)cc4)CC4(CCC4)CC3)CC2)cc1Oc1cnc2[nH]ccc2c1` [compound 30, 3-((1H-pyrrolo[2,3-b]pyridin-5-yl)oxy)-5-(4-((6-(4-chlorophenyl)spiro[3.5]non-6-en-7-yl)methyl)piperazin-1-yl)-N-((3-nitro-4-(((tetrahydro-2H-pyran-4-yl)methyl)amino)phenyl)sulfonyl)picolinamide] were, in that order, 22.5 nM and 19 nM.
Regarding `O=C(NS(=O)(=O)c1ccc(NC[C@H]2COCCO2)c([N+](=O)[O-])c1)c1cc(F)c(N2CCN(CC3=C(c4ccc(Cl)cc4)CC4(CCC4)CC3)CC2)cc1Oc1cnc2[nH]ccc2c1` [compound 39, (S)-N-((4-(((1,4-dioxan-2-yl)methyl)amino)-3-nitrophenyl)sulfonyl)-2-((1H-pyrrolo[2,3-b]pyridin-5-yl)oxy)-4-(4-((6-(4-chlorophenyl)spiro[3.5]non-6-en-7-yl)methyl)piperazin-1-yl)-5-fluorobenzamide], the IC50 in assay [4] is 33.7 nM; in assay [1] it was 31 nM.
As for `COCCOCCNc1ccc(S(=O)(=O)NC(=O)c2ncc(N3CCN(CC4=C(c5ccc(Cl)cc5)CC5(CCC5)CC4)CC3)cc2Oc2cnc3[nH]ccc3c2)cc1[N+](=O)[O-]` [compound 31, 3-((1H-pyrrolo[2,3-b]pyridin-5-yl)oxy)-5-(4-((6-(4-chlorophenyl)spiro[3.5]non-6-en-7-yl)methyl)piperazin-1-yl)-N-((4-((2-(2-methoxyethoxy)ethyl)amino)-3-nitrophenyl)sulfonyl)picolinamide], the IC50 in assay [4] (Homo sapiens, MV4-11) was 116 nM; in assay [1] it was 34 nM.
The like results for `COCCn1cc(S(=O)(=O)NC(=O)c2ccc(N3CCN(CC4=C(c5ccc(Cl)cc5)CC5(CCC5)CC4)CC3)cc2Oc2cnc3[nH]ccc3c2)cc1[N+](=O)[O-]` [compound 35, 2-((1H-pyrrolo[2,3-b]pyridin-5-yl)oxy)-4-(4-((6-(4-chlorophenyl)spiro[3.5]non-6-en-7-yl)methyl)piperazin-1-yl)-N-((1-(2-methoxyethyl)-5-nitro-1H-pyrrol-3-yl)sulfonyl)benzamide] were, in that order, 3600 nM and 611 nM.
In the case of `COCCOCCNc1ccc(S(=O)(=O)NC(=O)c2cc(F)c(N3CCN(CC4=C(c5ccc(Cl)cc5)CC5(CCC5)CC4)CC3)cc2Oc2cnc3[nH]ccc3c2)cc1[N+](=O)[O-]` [compound 37, 2-((1H-pyrrolo[2,3-b]pyridin-5-yl)oxy)-4-(4-((6-(4-chlorophenyl)spiro[3.5]non-6-en-7-yl)methyl)piperazin-1-yl)-5-fluoro-N-((4-((2-(2-methoxyethoxy)ethyl)amino)-3-nitrophenyl)sulfonyl)benzamide], the IC50 in assay [4] (Homo sapiens, MV4-11) came to 154 nM; in assay [1], 68 nM.
The like results for `O=C(NS(=O)(=O)c1cc(F)c(NC[C@H]2COCCO2)c([N+](=O)[O-])c1)c1ccc(N2CCN(CC3=C(c4ccc(Cl)cc4)CC4(CCC4)CC3)CC2)cc1Oc1cnc2[nH]ccc2c1` [Cpd. No. 40, (S)-N-((4-(((1,4-dioxan-2-yl)methyl)amino)-3-fluoro-5-nitrophenyl)sulfonyl)-2-((1H-pyrrolo[2,3-b]pyridin-5-yl)oxy)-4-(4-((6-(4-chlorophenyl)spiro[3.5]non-6-en-7-yl)methyl)piperazin-1-yl)benzamide] were, in that order, 2.46 nM and 1.4 nM.
Take `O=C(NS(=O)(=O)c1ccc(NCC2CCOCC2)c([N+](=O)[O-])c1)c1ccc(C2=CCN(CC3=C(c4ccc(Cl)cc4)CC4(CCC4)CC3)CC2)cc1Oc1cnc2[nH]ccc2c1` [compound 7, 2-((1H-pyrrolo[2,3-b]pyridin-5-yl)oxy)-4-(1-((6-(4-chlorophenyl)spiro[3.5]non-6-en-7-yl)methyl)-1,2,3,6-tetrahydropyridin-4-yl)-N-((3-nitro-4-(((tetrahydro-2H-pyran-4-yl)methyl)amino)phenyl)sulfonyl)benzamide]: the IC50 was found to be 35 nM in assay [1] and 15.7 nM in assay [2].
The like results for `O=C(NS(=O)(=O)c1cc([N+](=O)[O-])c2c(cnn2CC2CCOCC2)c1)c1ccc(N2CCN(CC3=C(c4ccc(Cl)cc4)CC4(CCC4)CC3)CC2)cc1Oc1cnc2[nH]ccc2c1` [compound 60, 2-((1H-pyrrolo[2,3-b]pyridin-5-yl)oxy)-4-(4-((6-(4-chlorophenyl)spiro[3.5]non-6-en-7-yl)methyl)piperazin-1-yl)-N-((7-nitro-1-((tetrahydro-2H-pyran-4-yl)methyl)-1H-indazol-5-yl)sulfonyl)benzamide] were, in that order, 252 nM and 67.5 nM.
Consider `COCCOCCn1nc2cc(S(=O)(=O)NC(=O)c3ccc(N4CCN(CC5=C(c6ccc(Cl)cc6)CC6(CCC6)CC5)CC4)cc3Oc3cnc4[nH]ccc4c3)cc([N+](=O)[O-])c2c1F` [compound 22, 2-((1H-pyrrolo[2,3-b]pyridin-5-yl)oxy)-4-(4-((6-(4-chlorophenyl)spiro[3.5]non-6-en-7-yl)methyl)piperazin-1-yl)-N-((3-fluoro-2-(2-(2-methoxyethoxy)ethyl)-4-nitro-2H-indazol-6-yl)sulfonyl)benzamide], for which the IC50 stood at 58.9 nM in assay [4] (Homo sapiens, MV4-11) and 20 nM in assay [1].
